In ChEMBL document CHEMBL3616411, “Discovery of 1-hydroxypyridine-2-thiones as selective histone deacetylase inhibitors and their potential application for treating leukemia” (Bioorg Med Chem Lett, 2015):

Experiments:
[1] = Cytotoxicity against HEK293 cells assessed as reduction in cell viability; type: cell-based; conditions: human
[2] = system: K562; assay: cells; type: functional, cell-based; conditions: Homo sapiens
[3] = biological target: Histone deacetylase 2 (Homo sapiens, UniProt Q92769)
Histone deacetylase 2, sequence (Q92769 whole entry): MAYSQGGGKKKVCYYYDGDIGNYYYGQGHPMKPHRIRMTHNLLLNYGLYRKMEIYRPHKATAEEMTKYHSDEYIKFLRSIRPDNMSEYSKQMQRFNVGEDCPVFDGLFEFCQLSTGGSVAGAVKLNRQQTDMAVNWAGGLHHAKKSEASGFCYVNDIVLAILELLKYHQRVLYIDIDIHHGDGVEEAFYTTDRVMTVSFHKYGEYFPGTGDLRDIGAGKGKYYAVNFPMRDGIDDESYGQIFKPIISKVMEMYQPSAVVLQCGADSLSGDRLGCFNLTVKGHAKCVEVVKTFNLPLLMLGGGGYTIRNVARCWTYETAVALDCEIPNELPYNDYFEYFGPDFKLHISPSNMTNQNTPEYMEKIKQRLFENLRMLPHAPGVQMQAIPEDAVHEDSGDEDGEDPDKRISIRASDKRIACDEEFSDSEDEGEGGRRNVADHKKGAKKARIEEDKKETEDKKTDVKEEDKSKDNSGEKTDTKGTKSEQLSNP

[4] = cells; type: functional, cell-based; conditions: Homo sapiens, IR-K562
[5] = biological target: Histone deacetylase 1 (Homo sapiens, UniProt Q13547); assay: Inhibition of HDAC1 (unknown origin) using RHKK(Ac) fluorogenic acetylated peptide substrate by fluorometric assay
Histone deacetylase 1, sequence (Q13547 whole entry): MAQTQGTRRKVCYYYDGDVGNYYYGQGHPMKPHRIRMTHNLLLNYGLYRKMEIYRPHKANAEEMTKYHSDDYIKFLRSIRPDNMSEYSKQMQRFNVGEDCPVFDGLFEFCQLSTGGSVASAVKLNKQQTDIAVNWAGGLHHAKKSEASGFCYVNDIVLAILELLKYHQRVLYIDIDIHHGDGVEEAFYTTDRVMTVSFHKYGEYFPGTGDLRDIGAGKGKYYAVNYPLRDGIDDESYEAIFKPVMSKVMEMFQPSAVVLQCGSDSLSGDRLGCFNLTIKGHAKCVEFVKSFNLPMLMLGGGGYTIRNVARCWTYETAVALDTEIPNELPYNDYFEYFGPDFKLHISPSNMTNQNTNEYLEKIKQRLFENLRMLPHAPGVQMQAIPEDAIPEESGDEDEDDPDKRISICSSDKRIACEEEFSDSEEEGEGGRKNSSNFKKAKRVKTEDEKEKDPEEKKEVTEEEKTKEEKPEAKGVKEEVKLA

[6] = biological target: T1, Histone deacetylase 8 (Homo sapiens, UniProt Q9BY41); assay: Inhibition of HDAC8 (unknown origin) using RHK(Ac)K(Ac) fluorogenic acetylated peptide substrate by fluorometric assay
T1 sequence (Q9BY41 whole entry): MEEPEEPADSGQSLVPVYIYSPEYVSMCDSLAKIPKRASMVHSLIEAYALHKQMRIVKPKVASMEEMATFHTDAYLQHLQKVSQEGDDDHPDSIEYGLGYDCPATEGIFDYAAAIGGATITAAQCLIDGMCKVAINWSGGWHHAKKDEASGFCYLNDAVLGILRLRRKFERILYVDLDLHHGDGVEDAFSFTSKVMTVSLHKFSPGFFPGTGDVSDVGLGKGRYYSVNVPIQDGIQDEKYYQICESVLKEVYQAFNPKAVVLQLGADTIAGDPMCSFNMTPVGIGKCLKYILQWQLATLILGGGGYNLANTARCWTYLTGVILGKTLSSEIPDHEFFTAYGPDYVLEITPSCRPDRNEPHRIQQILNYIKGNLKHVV

[7] = biological target: T2, Protein deacetylase HDAC6 (Homo sapiens, UniProt Q9UBN7); assay: Inhibition of HDAC6 (unknown origin) using RHKK(Ac) fluorogenic acetylated peptide substrate by fluorometric assay
T2 sequence (Q9UBN7 whole entry): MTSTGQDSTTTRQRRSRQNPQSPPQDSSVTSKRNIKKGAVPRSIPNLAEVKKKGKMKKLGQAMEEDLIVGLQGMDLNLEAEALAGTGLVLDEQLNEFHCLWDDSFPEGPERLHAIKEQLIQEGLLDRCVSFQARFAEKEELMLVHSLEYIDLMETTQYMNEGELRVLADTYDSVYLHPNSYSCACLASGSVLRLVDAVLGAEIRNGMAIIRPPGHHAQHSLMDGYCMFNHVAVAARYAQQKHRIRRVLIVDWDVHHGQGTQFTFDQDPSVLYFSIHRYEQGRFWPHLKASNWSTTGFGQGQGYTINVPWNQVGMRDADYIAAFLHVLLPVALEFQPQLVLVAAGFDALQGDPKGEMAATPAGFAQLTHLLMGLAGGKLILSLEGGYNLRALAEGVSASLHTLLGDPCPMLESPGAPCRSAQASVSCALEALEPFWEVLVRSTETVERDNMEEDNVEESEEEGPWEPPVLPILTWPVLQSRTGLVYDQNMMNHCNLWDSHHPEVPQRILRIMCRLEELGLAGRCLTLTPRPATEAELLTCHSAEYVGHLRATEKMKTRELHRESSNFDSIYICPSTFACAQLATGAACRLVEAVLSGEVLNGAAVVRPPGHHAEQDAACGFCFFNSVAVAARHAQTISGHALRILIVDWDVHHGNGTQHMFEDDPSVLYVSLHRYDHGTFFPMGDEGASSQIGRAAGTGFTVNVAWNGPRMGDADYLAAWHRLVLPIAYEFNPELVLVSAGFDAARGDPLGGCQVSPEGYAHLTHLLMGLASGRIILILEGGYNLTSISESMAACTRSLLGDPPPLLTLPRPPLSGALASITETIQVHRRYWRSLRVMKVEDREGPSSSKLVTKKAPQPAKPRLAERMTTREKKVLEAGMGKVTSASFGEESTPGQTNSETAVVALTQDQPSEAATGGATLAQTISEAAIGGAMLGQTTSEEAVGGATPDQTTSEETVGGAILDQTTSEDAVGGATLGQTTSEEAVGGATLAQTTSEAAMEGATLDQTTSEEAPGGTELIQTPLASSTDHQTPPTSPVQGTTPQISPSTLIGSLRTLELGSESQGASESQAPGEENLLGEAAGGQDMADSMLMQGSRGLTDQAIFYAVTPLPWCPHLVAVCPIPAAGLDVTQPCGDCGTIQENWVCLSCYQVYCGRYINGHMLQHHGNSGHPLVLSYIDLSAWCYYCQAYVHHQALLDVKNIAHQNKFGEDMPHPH

[8] = system: THP-1; assay: cells; type: functional, cell-based; conditions: Homo sapiens
[9] = system: U-937; assay: cells; type: functional, cell-based; conditions: Homo sapiens
[10] = biological target: Histone deacetylase 9 (Homo sapiens, UniProt Q9UKV0); assay: Inhibition of HDAC9 (unknown origin) using Boc-Lys(trifluoroacetyl)-AMC fluorogenic acetylated peptide substrate by fluorometric assay
Histone deacetylase 9, sequence (Q9UKV0 whole entry): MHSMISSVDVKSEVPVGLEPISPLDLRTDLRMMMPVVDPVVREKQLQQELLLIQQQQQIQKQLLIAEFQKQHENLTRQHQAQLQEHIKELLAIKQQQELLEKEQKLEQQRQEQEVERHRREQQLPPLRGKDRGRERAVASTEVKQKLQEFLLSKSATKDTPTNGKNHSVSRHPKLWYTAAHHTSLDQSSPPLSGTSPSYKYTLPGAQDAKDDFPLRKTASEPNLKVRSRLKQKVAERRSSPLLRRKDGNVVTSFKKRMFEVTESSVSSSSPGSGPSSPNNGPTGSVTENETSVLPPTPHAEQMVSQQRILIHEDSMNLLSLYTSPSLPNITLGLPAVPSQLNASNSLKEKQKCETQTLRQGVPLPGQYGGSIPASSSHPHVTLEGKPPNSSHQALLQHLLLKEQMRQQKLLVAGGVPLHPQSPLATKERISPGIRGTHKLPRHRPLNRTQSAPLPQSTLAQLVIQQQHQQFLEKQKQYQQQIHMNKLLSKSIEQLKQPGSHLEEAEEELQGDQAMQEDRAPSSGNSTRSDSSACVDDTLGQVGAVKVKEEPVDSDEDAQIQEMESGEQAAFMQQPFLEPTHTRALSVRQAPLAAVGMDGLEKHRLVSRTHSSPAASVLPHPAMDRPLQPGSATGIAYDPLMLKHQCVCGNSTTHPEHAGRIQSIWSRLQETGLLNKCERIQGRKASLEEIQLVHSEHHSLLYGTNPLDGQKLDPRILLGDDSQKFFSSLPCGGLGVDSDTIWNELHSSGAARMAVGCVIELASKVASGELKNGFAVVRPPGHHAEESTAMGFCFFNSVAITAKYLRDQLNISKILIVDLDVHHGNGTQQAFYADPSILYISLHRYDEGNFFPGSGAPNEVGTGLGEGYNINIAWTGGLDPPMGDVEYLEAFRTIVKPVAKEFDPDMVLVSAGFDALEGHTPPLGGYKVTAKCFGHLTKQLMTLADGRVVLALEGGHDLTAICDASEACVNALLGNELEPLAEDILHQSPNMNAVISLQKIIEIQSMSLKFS

[11] = biological target: Histone deacetylase 5 (Homo sapiens, UniProt Q9UQL6); assay: Inhibition of HDAC5 (unknown origin) using Boc-Lys(trifluoroacetyl)-AMC fluorogenic acetylated peptide substrate by fluorometric assay
Histone deacetylase 5, sequence (Q9UQL6 whole entry): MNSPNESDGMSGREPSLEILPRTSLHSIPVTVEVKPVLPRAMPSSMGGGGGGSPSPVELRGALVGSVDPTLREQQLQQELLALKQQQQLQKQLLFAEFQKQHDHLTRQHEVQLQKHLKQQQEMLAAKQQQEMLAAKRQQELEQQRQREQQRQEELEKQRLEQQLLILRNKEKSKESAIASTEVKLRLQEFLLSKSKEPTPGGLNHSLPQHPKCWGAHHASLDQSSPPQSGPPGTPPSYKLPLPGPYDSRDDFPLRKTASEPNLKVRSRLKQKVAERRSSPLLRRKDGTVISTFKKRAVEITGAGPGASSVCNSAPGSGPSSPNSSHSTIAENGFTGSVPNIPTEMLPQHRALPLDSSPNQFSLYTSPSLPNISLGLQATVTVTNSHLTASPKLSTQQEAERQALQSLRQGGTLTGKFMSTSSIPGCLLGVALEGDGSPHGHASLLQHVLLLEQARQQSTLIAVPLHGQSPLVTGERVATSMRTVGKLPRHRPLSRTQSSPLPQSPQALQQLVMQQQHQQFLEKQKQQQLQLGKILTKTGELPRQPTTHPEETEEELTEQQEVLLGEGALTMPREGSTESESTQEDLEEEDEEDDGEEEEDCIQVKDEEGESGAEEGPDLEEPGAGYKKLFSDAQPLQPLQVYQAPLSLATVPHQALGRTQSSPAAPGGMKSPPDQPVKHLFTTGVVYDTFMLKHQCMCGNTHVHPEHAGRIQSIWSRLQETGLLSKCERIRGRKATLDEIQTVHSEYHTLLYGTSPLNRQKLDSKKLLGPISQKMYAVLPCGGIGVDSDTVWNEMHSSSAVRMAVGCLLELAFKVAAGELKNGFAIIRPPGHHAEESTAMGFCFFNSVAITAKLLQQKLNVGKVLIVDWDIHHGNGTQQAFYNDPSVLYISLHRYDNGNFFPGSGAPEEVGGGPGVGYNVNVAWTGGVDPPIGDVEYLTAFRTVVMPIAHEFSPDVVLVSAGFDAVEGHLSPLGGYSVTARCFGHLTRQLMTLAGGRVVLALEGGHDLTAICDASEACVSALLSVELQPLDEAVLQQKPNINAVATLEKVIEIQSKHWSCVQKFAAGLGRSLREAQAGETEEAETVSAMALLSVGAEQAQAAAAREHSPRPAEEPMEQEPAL

[12] = biological target: Histone deacetylase 4 (Homo sapiens, UniProt P56524); assay: Inhibition of HDAC4 (unknown origin) using Boc-Lys(trifluoroacetyl)-AMC fluorogenic acetylated peptide substrate by fluorometric assay
Histone deacetylase 4, sequence (P56524 whole entry): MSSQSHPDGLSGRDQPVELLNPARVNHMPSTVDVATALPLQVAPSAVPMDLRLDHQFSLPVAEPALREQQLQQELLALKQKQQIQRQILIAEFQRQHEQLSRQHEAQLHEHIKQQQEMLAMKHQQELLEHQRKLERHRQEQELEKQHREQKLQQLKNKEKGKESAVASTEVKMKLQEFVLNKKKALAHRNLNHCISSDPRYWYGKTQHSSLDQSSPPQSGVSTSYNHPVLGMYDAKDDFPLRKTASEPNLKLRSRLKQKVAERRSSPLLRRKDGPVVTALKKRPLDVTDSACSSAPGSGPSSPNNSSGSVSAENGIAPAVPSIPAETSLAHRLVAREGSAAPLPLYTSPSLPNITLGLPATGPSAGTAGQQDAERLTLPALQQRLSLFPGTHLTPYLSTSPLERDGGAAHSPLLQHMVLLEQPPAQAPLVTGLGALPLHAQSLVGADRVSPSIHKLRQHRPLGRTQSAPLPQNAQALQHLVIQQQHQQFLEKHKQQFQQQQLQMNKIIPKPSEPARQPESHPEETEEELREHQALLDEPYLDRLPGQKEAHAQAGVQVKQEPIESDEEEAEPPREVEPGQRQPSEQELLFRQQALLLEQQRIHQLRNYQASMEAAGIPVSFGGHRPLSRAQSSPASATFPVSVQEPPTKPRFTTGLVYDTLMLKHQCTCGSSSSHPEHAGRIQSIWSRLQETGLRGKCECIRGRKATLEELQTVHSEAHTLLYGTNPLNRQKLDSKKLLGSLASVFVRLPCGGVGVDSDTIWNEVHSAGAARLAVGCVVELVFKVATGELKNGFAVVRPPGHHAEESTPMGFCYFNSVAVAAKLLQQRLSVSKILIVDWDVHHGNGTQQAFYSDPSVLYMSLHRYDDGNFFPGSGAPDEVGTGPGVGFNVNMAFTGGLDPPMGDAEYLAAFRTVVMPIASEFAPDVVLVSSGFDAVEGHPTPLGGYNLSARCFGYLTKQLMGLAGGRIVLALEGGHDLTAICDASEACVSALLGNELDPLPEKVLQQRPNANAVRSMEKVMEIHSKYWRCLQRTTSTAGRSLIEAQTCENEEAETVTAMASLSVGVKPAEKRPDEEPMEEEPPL

[13] = Cytotoxicity against imatinib resistant human IR-K562 cells assessed as cell viability at 250 nM incubated for 8 days (reference value: 89.4%); type: functional; conditions: IR-K562, 192 h, read-out: Activity
[14] = Cytotoxicity against imatinib resistant human IR-K562 cells assessed as cell viability at 250 nM incubated for 3 days (reference value: 79.5%); type: functional; conditions: IR-K562, 72 h, read-out: Activity
[15] = in vitro; conditions: human, HEK293 cells (CC50) versus THP1 cells (IC50)
[16] = Cytotoxicity against imatinib resistant human IR-K562 cells assessed as cell viability at 250 nM incubated for 5 days (reference value: 86.7%); type: functional; conditions: IR-K562, 120 h, read-out: Activity
[17] = in vitro; conditions: human, HEK293 cells (CC50) versus U937 cells (IC50)
[18] = in vitro; conditions: human
[19] = in vitro; conditions: human, HEK293 cells (CC50) versus K562 cells (IC50)
[20] = Cytotoxicity against imatinib resistant human IR-K562 cells assessed as cell viability at 250 nM incubated for 1 day (reference value: 73.9%); type: functional; conditions: IR-K562, 24 h, read-out: Activity

| Compound | CC50 [1] [µM] | IC50 [2] [µM] | IC50 [3] [µM] | IC50 [4] [µM] | IC50 [5] [µM] | IC50 [6] [µM] | IC50 [7] [µM] | IC50 [8] [µM] | IC50 [9] [µM] | IC50 [10] [µM] | IC50 [11] [µM] | IC50 [12] [µM] | viability at […] [13] [%] | viability at […] [14] [%] | selectivity ratio [15] | viability at […] [16] [%] | selectivity ratio [17] | selectivity ratio [18] | selectivity ratio [19] | viability at […] [20] [%] |
| --- | --- | --- | --- | --- | --- | --- | --- | --- | --- | --- | --- | --- | --- | --- | --- | --- | --- | --- | --- | --- |
| O=C(CCCCCCC(=O)Nc1ccccc1)NO [VORINOSTAT] | 100 |  |  |  |  |  |  |  |  |  |  |  |  |  |  |  |  |  |  |  |
| O=C(N[C@@H](C(=O)O)c1ccccc1)c1cccc(=S)n1O | 76 | 8.7 | 95 | 24 | 93 | 1.2 | 8.8 | 6.4 | 57 | 34 | 27 | 64 |  |  |  |  |  |  |  |  |
| Cc1ccc(NC(=O)c2ccc(CN3CCN(C)CC3)cc2)cc1Nc1nccc(-c2cccnc2)n1 [IMATINIB] | 8.4 | 0.06 |  | 1.1 |  |  |  | 25 | 19 |  |  |  | 71.1 | 58.7 | 0.34 | 65.1 | 0.44 | 7.6 | 140 | 47 |
| Cc1nc(Nc2ncc(C(=O)Nc3c(C)cccc3Cl)s2)cc(N2CCN(CCO)CC2)n1 [DASATINIB] | 16 | 0.08 |  | 1.9 |  |  |  | 6 |  |  |  |  |  |  | 2.6 |  | < 0.1 | 8.4 | 200 |  |
| C[C@@H](NC(=O)c1cccc(=S)n1O)C(=O)O |  | 3.7 | 400 | 18 | 270 | 0.98 | 4.2 | 2.2 | 25 | 58 | 37 | 100 |  |  |  |  |  |  |  |  |
| O=C(O)c1cccc(=S)n1O | 97 | 18 | 710 | 52 | 43 | 3.3 | 0.15 | 25 | 75 | 47 | 35 | 71 |  |  |  |  |  |  |  |  |
